Experimental data reported in ChEMBL document CHEMBL3393050, “Fine tuning of 4,6-bisphenyl-2-(3-alkoxyanilino)pyrimidine focusing on the activity-sensitive aminoalkoxy moiety for a therapeutically useful inhibitor of receptor for advanced glycation end products (RAGE)” (Bioorg Med Chem, 2015).
Activity calls are given as the source filed them. The rule behind the calls is not given here.

test system: not listed separately; assay: Kinetic solubility in DMSO solution at pH 7.4 by nephelometry; format: physicochemical; settings: read-out: Kinetic_solubility

solubility kinetic [µM] | SMILES
28.2 | CN(C)C1CCN(CCOc2cccc(Nc3nc(-c4ccc(Cl)cc4)cc(-c4ccc(Cl)cc4)n3)c2)C1.Cl (stereo unspecified)

biological target: Advanced glycosylation end product-specific receptor (Homo sapiens) (UniProt Q15109); assay: Inhibition of biotinylated human RAGE assessed as bound amyloid beta level at 20 uM after 60 mins by ELISA relative to control; settings: not given
Sequence (Q15109 whole entry): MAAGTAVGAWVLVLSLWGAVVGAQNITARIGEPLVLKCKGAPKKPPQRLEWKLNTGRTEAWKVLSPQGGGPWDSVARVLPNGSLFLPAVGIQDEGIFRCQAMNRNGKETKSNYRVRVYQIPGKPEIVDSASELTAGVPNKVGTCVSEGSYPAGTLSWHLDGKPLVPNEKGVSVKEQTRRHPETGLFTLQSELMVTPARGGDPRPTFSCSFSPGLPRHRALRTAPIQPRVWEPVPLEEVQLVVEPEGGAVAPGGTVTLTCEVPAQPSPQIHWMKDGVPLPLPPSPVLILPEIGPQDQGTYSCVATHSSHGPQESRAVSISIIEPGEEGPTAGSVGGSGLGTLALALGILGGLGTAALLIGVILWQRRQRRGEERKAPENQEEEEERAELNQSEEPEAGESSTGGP

inhibition | SMILES
inactive | O=C1CCN(CCOc2cccc(Nc3nc(-c4ccc(Cl)cc4)cc(-c4ccc(Cl)cc4)n3)c2)CC1
inactive | COC(=O)CCOc1cccc(Nc2nc(-c3ccc(Cl)cc3)cc(-c3ccc(Cl)cc3)n2)c1
inactive | Clc1ccc(-c2cc(-c3ccc(Cl)cc3)nc(Nc3cccc(OCCN4CCSCC4)c3)n2)cc1
inactive | CO/N=C/CCOc1cccc(Nc2nc(-c3ccc(Cl)cc3)cc(-c3ccc(Cl)cc3)n2)c1
inactive | CONC(=O)CCOc1cccc(Nc2nc(-c3ccc(Cl)cc3)cc(-c3ccc(Cl)cc3)n2)c1
inactive | CON(C)C(=O)CCOc1cccc(Nc2nc(-c3ccc(Cl)cc3)cc(-c3ccc(Cl)cc3)n2)c1
inactive | Clc1ccc(-c2cc(-c3ccc(Cl)cc3)nc(Nc3cccc(OCCN4CCOCC4)c3)n2)cc1
inactive | O=C1CCCN1CCOc1cccc(Nc2nc(-c3ccc(Cl)cc3)cc(-c3ccc(Cl)cc3)n2)c1
inactive | O=C(O)CCOc1cccc(Nc2nc(-c3ccc(Cl)cc3)cc(-c3ccc(Cl)cc3)n2)c1
inactive | CCOCCOc1cccc(Nc2nc(-c3ccc(Cl)cc3)cc(-c3ccc(Cl)cc3)n2)c1

same assay, conditions: values are per cent of control

residual binding, % of control [%] | SMILES
143 | CN(C)C1CCN(CCOc2cccc(Nc3nc(-c4ccc(Cl)cc4)cc(-c4ccc(Cl)cc4)n3)c2)C1.Cl (stereo unspecified)
112 | Clc1ccc(-c2cc(-c3ccc(Cl)cc3)nc(Nc3cccc(OCCN4CCCCC4)c3)n2)cc1
74 | CN1CCN(c2cccc(Nc3nc(-c4ccc(Cl)cc4)cc(-c4ccc(Cl)cc4)n3)c2)CC1
114 | Clc1ccc(-c2cc(-c3ccc(Cl)cc3)nc(Nc3cccc(OCCN4CCCC4)c3)n2)cc1
24 | CN(C)CCOc1cccc(Nc2nc(-c3ccc(Cl)cc3)cc(-c3ccc(Cl)cc3)n2)c1
52 | OC1CCCN(CCOc2cccc(Nc3nc(-c4ccc(Cl)cc4)cc(-c4ccc(Cl)cc4)n3)c2)C1 (stereo unspecified)
101 | CCN(CCO)CCOc1cccc(Nc2nc(-c3ccc(Cl)cc3)cc(-c3ccc(Cl)cc3)n2)c1
106 | NC1CCN(CCOc2cccc(Nc3nc(-c4ccc(Cl)cc4)cc(-c4ccc(Cl)cc4)n3)c2)C1 (stereo unspecified)
46 | CC(C)(C)OC(=O)NC1CCN(CCOc2cccc(Nc3nc(-c4ccc(Cl)cc4)cc(-c4ccc(Cl)cc4)n3)c2)C1 (stereo unspecified)
84 | CCN(CC)CCCOc1cccc(Nc2nc(-c3ccc(Cl)cc3)cc(-c3ccc(Cl)cc3)n2)c1
48 | COC1CCCN(CCOc2cccc(Nc3nc(-c4ccc(Cl)cc4)cc(-c4ccc(Cl)cc4)n3)c2)C1 (stereo unspecified)
71 | CN1CCN(CCOc2cccc(Nc3nc(-c4ccc(Cl)cc4)cc(-c4ccc(Cl)cc4)n3)c2)CC1
88 | CCN(CCOC)CCOc1cccc(Nc2nc(-c3ccc(Cl)cc3)cc(-c3ccc(Cl)cc3)n2)c1

test system: not listed separately; assay: Kinetic solubility in DMSO solution at pH 4 by nephelometry; format: physicochemical; settings: read-out: Kinetic_solubility

solubility kinetic [µM] | SMILES
> 500 | CN(C)C1CCN(CCOc2cccc(Nc3nc(-c4ccc(Cl)cc4)cc(-c4ccc(Cl)cc4)n3)c2)C1.Cl (stereo unspecified)
372 | CCN(CC)CCOc1cccc(Nc2nc(-c3ccc(Cl)cc3)cc(-c3ccc(Cl)cc3)n2)c1.Cl
